# Measured values published in patent publication US20200207830A1, “TREM2 MUTANTS RESISTANT TO SHEDDASE CLEAVAGE” (NOVARTIS AG, priority 2017, published 2020).
# How the values were obtained:
# ADAM17 [1] = molecular target: T1, ADAM17 (Homo sapiens, UniProt P78536); assay: In vitro inhibition of recombinant ADAM17; format: biochemical; conditions: Hepes buffer pH 7.5
# ADAM10 [2] = molecular target: T2, ADAM10 (Homo sapiens, UniProt O14672); assay: In vitro inhibition of recombinant ADAM10; format: biochemical; conditions: Hepes buffer pH 7.5
# T2 sequence (O14672 214-748): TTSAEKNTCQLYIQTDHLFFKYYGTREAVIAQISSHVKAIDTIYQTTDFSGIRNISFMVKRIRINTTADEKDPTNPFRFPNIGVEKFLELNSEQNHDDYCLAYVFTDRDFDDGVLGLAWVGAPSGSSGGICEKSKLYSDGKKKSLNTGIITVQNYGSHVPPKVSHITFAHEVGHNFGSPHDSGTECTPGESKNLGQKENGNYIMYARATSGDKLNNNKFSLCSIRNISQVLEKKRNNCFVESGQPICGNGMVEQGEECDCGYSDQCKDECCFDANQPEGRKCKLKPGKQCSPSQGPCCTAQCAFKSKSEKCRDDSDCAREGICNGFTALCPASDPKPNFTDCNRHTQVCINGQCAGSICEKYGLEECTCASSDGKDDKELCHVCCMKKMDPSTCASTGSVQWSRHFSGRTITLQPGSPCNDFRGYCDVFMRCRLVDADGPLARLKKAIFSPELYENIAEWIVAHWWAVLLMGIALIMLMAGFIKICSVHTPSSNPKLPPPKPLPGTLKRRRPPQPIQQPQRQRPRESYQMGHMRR
# Method: FIG. 2E is a line graph showing inhibition of recombinant ADAM10 and ADAM17 by DPC333 and GI254023 in vitro in Hepes buffer at pH 7.5.
# Enzyme selectivity of the ADAM inhibitors applied was determined in an in vitro cleavage assay and both inhibitors were used over a broad concentration range to investigate effects on TREM2 cell surface expression in CHO-hDAP12-hTREM2 cells and human M2A macrophages.
# CHO-hDAP12-hTREM2 cells = assay: Live cell imaging of TREM2 cell surface expression in CHO-hDAP12-hTREM2 cells; format: cell-based; conditions: overnight treatment
# Excerpt: (§1) CHO cells were transfected to co-express hDAP12 and hTREM2 using Lipofectamine LTX reagent (Thermofischer) according to the manufacturer's recommendations. One positive clone was selected and designated CHO-hDAP12-hTREM2. Human M2A macrophages were obtained from buffy coat using a negative isolation kit for monocytes (Stem cell technologies) and differentiated for 5 days in RPMI1640 medium with Glutamax (Gibco) supplemented with 10% FBS (Gibco), PenStrep (Gibco), 1% Sodium Pyruvate (Gibco), 0.025 M HEPES Buffer (Gibco), 0.05 mM β-mercaptoethanol (Gibco), M-CSF (40 ng/ml) and IL-4 (50 ng/ml). Cell surface TREM2 was detected by FACS as described above.
# (§2) Human M2A macrophages or CHO-hDAP12-hTREM2 were seeded on 384 well plates (Greiner) and treated with ADAM inhibitors DPC333 or GI254023 at concentrations indicated in the figures. 16 h later cells were treated for 30 minutes with PMA (50 ng/ml) or 0.1% DMSO for 30 minutes. Plates were put on ice and stained with goat anti human TREM2 antibody AF1828 (R&D Systems) or isotype control and Hoechst stain followed by incubation with the secondary Alexa Fluor 488 conjugated anti goat antibody (Molecular Probes). Images were acquired using an InCe112000 analyzer (GE Healthcare). For image quantification the free open source software CellProfiler was applied.
# To determine the contribution of ADAM10 or ADAM17 to shedding of TREM2 ectodomain, selective inhibitors were identified: DPC333 (Qian et al., Drug Metabolism and Disposition: the Biological Fate of Chemicals 35, 1916-1925, 2007) and GI254023 (Hundhausen et al., Blood. 2003; 102:1186-1195). DPC333 and GI254023 were characterized for inhibitory selectivity towards ADAM10 and ADAM17. […] Using live cell imaging, cell surface expression of hTREM2 was assessed in CHO-hDAP12-hTREM2 cells after overnight treatment of the cells with the two ADAM inhibitors under conditional shedding conditions (FIG. 2A) or after treatment of the cells with PMA (FIG. 2B). […] This effect might be attributed to true ADAM10 inhibition or it might be caused by unspecific inhibition of ADAM17 by GI254023 when used at high concentrations. […] To get closer to a physiological cellular system, a similar experiment was conducted in human M2A macrophages differentiated from CD^14+ human monocytes (FIGS. 2C-2D).
# human M2A macrophages = assay: Live cell imaging of TREM2 cell surface expression in human M2A macrophages; format: cell-based
# Excerpt: as §1, §2
# To determine the contribution of ADAM10 or ADAM17 to shedding of TREM2 ectodomain, selective inhibitors were identified: DPC333 (Qian et al., Drug Metabolism and Disposition: the Biological Fate of Chemicals 35, 1916-1925, 2007) and GI254023 (Hundhausen et al., Blood. 2003; 102:1186-1195). DPC333 and GI254023 were characterized for inhibitory selectivity towards ADAM10 and ADAM17. […] Using live cell imaging, cell surface expression of hTREM2 was assessed in CHO-hDAP12-hTREM2 cells after overnight treatment of the cells with the two ADAM inhibitors under conditional shedding conditions (FIG. 2A) or after treatment of the cells with PMA (FIG. 2B). […]
# THP1 cells = assay: Cell surface TREM2 and sTREM2 in THP1 CRISPR cell clones; format: cell-based, human
# Method: THP1 cells stably coexpressing Cas9 and a blasticidin resistance gene delivered by lentivirus were cultured in RPMI medium containing 10% FBS, 1% L-glutamine, 1% pen/strep, and 10 μg/ml of blasticidin (Thermo Fisher Scientific). The cells were cultured at 37° C. in 5% CO2 atmosphere.
# THP1-Cas9 cells were infected with lentiviruses expressing the puromycin resistance gene and sgRNAs (for vector design, see Hoffman, Proceedings of the National Academy of Sciences of the United States of America 111, 3128-3133, 2014) targeting either ADAM10 ([…], SEQ ID NO: 75) or ADAM17 ([…], SEQ ID NO: 76). Lentiviral packaging was carried out in HEK293T cells as described previously. Briefly, 30 μL of lentiviral sgRNA supernatant was added to 1×10^6 THP1-Cas9 cells in 2 ml medium containing 5 μg/ml polybrene (Sigma) and spun at 300 g for 90 minutes in a 6-well plate. After 24 hours the cells were spun down and resuspended in fresh culture medium containing 1.5 μg/mL puromycin. After 4 weeks of weekly media changes, genomic DNA was isolated using a Quick-gDNA miniprep kit (Zymo Research) to assess the insertions and deletions (indels) present in the pool by next-generation sequencing (NGS). To isolate clones containing only frameshift indels, cells were plated at limiting dilution into 96-well plates. Upon expansion of the clones, they were assayed by NGS and clones containing only frameshift alleles were selected for downstream assays.
# To confirm the results in Example 2, a genetic approach was used to further investigate the contribution of ADAM10/17 to TREM2 shedding. Human monocytic THP1 cells were chosen as model system which endogenously expresses TREM2. Employing the CRISPR/CAS9 technology, clones were generated that lack expression of ADAM10 (AD10 H4) or ADAM17 (AD17 G12) as well as a control cell line (Ctrl gRNA). Absence of gene products was verified by FACS analysis or Western blot (FIGS. 3C-3D).
# Cell surface expressed TREM2 and sTREM2 were assessed in the three cell lines in the same experiment using three different conditions: no treatment reflecting constitutive shedding, PMA treatment that maximally activates shedding, and finally PMA and DPC333 treatment. […] Maximally activating sheddases with PMA leads to a strong reduction of cell surface TREM2 both in the control cell line and in the ADAM10 deficient clone. This is reflected in a strong increase in sTREM2. In the ADAM17 deficient cell line, PMA treatment also leads to a reduction of cell surface TREM2, but to a smaller extent than in the control CRISPR clone. Also, the increase in sTREM2 is smaller compared to PMA treated control CRISPR clone and ADAM10 deficient clone. However, the cleavage of TREM2 in the AD17 G12 clone in the presence of PMA must be caused by a sheddase other than ADAM17. […]
# ADAM17 [3] = molecular target: T1, ADAM17; assay: In vitro cleavage of TREM2 stalk region peptides by ADAM17 (HPLC); format: biochemical; conditions: neutral buffer, up to 48 hours, HPLC of parent peptide
# Excerpt: FIGS. 5A-5E show ADAM17 cleaves TREM2 stalk region peptides in vitro at H157-S158. […] All peptides were obtained with an N-terminal 7-methoxycoumarin (Mca) fluorescent tag […]. Underlined amino acids indicates main sheddase cleavage site. AA112-171: SEQ ID NO: 24; Peptide 1: SEQ ID NO: 25; Peptide 2: SEQ ID NO: 26; Peptide 3: SEQ ID NO: 27; Peptide la: SEQ ID NO: 28; Peptide 2a: SEQ ID NO: 29; Peptide 4: SEQ ID NO: 30; Peptide 5: SEQ ID NO: 31; Peptide 6: SEQ ID NO: 32. […] FIG. 5C discloses SEQ ID NOS 83, 51 and 84, respectively, in order of appearance.
# (§3) In order to identify the cleavage site of ADAM10/ADAM17 within the stalk region of TREM2, in vitro cleavage patterns of stalk region-derived peptides were investigated and confirmed the cleavage site by determination of the C-terminus of shed soluble TREM2 from cell culture supernatants. A series of peptides covering the stalk region were designed for in vitro investigation of ADAM10/ADAM17 cleavage (FIG. 5A). All peptides were obtained with an N-terminal 7-methoxycoumarin (Mca) fluorescent tag. Peptides 1-3, 1a and 2a were incubated with ADAM17 in neutral buffer for up to 48 hours, and reaction was followed by HPLC analysis of aliquots withdrawn at different time points.
# (§4) HPLC-MS analysis of the reaction mixture of peptide3/ADAM17 identified one major product, SISRSLLEGEIPFP-NH2(SEQ ID NO: 51), together with 2 minor cleavage products (FIGS. 5B-5C). […] At these time points there was essentially no substrate left. Therefore, it can be concluded that the minor cleavage products originate from secondary ADAM17 cleavage of the main product.
# ADAM10 [4] = molecular target: T2, ADAM10; assay: In vitro cleavage of TREM2 stalk region peptides by ADAM10; format: biochemical; conditions: data not shown
# Excerpt: as §3, §4
# Recent literature gave insight into ADAM10 and ADAM17 preferences for the cleavage of peptides and proteins (Caescu et al., Biochem J 424, 79-88, 2009; Tucher et al., J Proteome Res 13, 2205-2214, 2014). […] After searching for the least preferred amino acids in substrates of ADAM10 and 17, isoleucine was identified as never occurring in P1 of ADAM substrates, and a very low preference for aspartate or proline in P1′ and in P2′. […] In these peptides the H-SI cleavage site was replaced with IPP, IPD, and IDP, respectively.
# [5] = conditional shedding (steady state) conditions, FIG. 2A
# [6] = then PMA-treated cells, FIG. 2B
# T1 sequence (P78536 215-824): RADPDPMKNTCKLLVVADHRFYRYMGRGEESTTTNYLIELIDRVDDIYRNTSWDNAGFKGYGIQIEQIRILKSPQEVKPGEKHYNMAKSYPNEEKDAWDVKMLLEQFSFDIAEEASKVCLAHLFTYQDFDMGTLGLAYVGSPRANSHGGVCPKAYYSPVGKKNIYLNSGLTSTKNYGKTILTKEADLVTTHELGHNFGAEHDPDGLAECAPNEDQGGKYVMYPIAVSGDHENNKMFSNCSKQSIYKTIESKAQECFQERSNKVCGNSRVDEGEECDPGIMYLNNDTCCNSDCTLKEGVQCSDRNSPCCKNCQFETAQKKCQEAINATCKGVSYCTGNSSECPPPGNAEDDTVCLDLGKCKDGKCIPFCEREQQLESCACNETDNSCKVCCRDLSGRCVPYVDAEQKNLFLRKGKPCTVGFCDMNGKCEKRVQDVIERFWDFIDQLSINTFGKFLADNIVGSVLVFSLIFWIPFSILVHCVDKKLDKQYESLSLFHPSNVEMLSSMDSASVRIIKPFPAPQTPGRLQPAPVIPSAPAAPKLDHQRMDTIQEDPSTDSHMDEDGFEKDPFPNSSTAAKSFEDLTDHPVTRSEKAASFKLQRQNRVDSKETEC
IC50 (ADAM17 [1]),IC50 (ADAM10 [2]),Cleavage by ADAM17 (ADAM17 [3]),Cleavage by ADAM10 (ADAM10 [4]),Molecule,TREM2 cell surface levels (CHO-hDAP12-hTREM2 cells; [5]),TREM2 cell surface levels (CHO-hDAP12-hTREM2 cells; [6]),"TREM2 cell surface expression (human M2A macrophages; additional PMA treatment, FIG. 2D)","TREM2 cell surface expression (human M2A macrophages; steady-state shedding, FIG. 2C)","TREM2 cell surface levels (THP1 cells; co-treatment with PMA and DPC333, AD10 H4 cells (ADAM10 knockout))","TREM2 cell surface levels (THP1 cells; co-treatment with PMA and DPC333, AD17 G12 clone (ADAM17 knockout))","TREM2 cell surface levels (THP1 cells; co-treatment with PMA and DPC333, Ctrl gRNA cells)","sTREM2 (THP1 cells; co-treatment with PMA and DPC333 compared to PMA treatment only, AD17 G12 clone)"
< 0.6 nM,5.3 nM,–,–,Cc1cc(COc2ccc([C@]3(N)CCN([C@H](CC(C)C)C(=O)NO)C3=O)cc2)c2ccccc2n1 [DPC333],dose-dependently increases,dose-dependently increases,increases TREM2 cell surface expression dose-dependently,increases TREM2 cell surface expression dose-dependently,restored,smaller effects,restored,strongly reduced
196 nM,1.5 nM,–,–,"CNC(=O)[C@@H](NC(=O)[C@H](CCCc1ccccc1)[C@H](C)N(O)C=O)C(C)(C)C [GI254023, (2R,3 S)-3-(formyl-hydroxyamino)-2-(3-phenyl-1-propyl) butanoic acid [(1S)-2,2-dimethyl-1-methylcarbamoyl-1-propyl] amide]",limited effect,complete lack of effect,–,small effect,–,–,–,–
–,–,resistant to in vitro cleavage,cleavage resistant,"Peptide 4: TREM2 stalk peptide, H-SI cleavage site replaced with IPP; SEQ ID NO: 30 (DAHVEIPPSRSLLEGEIPFP)",–,–,–,–,–,–,–,–
–,–,resistant to in vitro cleavage,slowly cleaved,"Peptide 5: TREM2 stalk peptide, H-SI cleavage site replaced with IPD; SEQ ID NO: 31 (DAHVEIPDSRSLLEGEIPFP)",–,–,–,–,–,–,–,–
–,–,resistant to in vitro cleavage,slowly cleaved,"Peptide 6: TREM2 stalk peptide, H-SI cleavage site replaced with IDP; SEQ ID NO: 32 (DAHVEIDPSRSLLEGEIPFP)",–,–,–,–,–,–,–,–
